Test results from publication PMC8033753, “Proadrenomedullin N-Terminal 20 Peptides (PAMPs) Are Agonists of the Chemokine Scavenger Receptor ACKR3/CXCR7” (ACS Pharmacology & Translational Science, 2021).
Like-named read-outs stand apart in the source and are kept apart here. Where no end group is shown, it is not given here.

Experiments:
ACKR3 = biological target: T1, ACKR3 (Homo sapiens, UniProt P25106); experiment: β-arrestin-2 recruitment to ACKR3, nanoluciferase complementation (NanoBiT) in HEK cells; type: cell-based; settings: for activity toward ACKR3 (β-arrestin-2 recruitment), in words: concentration range up to 9 μM
T1 construct: expressed in transfected cells; host or cells: HEK293T
Method: (§1) Ligand-induced recruitment of β-arrestin, miniGi or miniGq proteins (engineered GTPase domain of Gα subunit)[46],[47] to the receptors was monitored using NanoBiT technology (Promega), as previously described.[27],[48] HEK293T cells (5 × 10^6 cells) were seeded in 10 cm dishes, and 24 h later, the cells were cotransfected with pNBe plasmids encoding the receptor C-terminally fused to SmBiT and β-arrestin, miniGi, or miniGq N-terminally fused to LgBiT. After 24 h, the cells were detached and incubated for 25 min at 37 °C with Nano-Glo Live Cell substrate diluted 200-fold, distributed into white 96-well plates (1 × 10^5 cells/well), and treated with the indicated concentrations of peptides. Luminescence was recorded during 20 min with a Mithras LB940 luminometer (Berthold Technologies). For the concentration–response curves, the signal recorded with a saturating concentration of full agonist for each receptor was set as 100%. For receptor screening experiments, results were expressed as fold vehicle, and an agonist chemokine (100 nM) listed in the IUPHAR repository of chemokine receptor ligands was included as a positive control for each receptor.
(§2) Concentration–response curves were fitted to the four-parameter Hill equation using an iterative, least-squares method (GraphPad Prism version 8.0.1). All curves were fitted to data points generated from the mean of at least three independent experiments. Statistical tests, i.e., ordinary one-way ANOVA and post hoc analysis were performed with GraphPad Prism 8.0.1. The p-values are indicated as follows: *, p < 0.05; **, p < 0.01; ***, p < 0.001; and ****, p < 0.0001.

MrgX2 = biological target: T2, MrgX2 (Homo sapiens, UniProt Q96LB1); experiment: β-arrestin-2 recruitment to MrgX2, NanoBiT in HEK cells; type: cell-based
T2 construct: expressed in transfected cells; host or cells: HEK293T
T2 sequence (Q96LB1 1-330): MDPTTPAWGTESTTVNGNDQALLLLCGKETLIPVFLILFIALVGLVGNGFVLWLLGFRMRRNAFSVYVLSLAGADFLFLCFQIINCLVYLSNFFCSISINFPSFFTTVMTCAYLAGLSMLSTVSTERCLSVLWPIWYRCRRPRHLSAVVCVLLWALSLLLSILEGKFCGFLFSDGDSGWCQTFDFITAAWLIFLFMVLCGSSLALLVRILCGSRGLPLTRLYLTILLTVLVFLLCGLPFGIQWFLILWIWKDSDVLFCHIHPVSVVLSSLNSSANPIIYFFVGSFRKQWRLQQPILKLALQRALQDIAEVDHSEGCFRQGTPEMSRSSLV
Method: as §1, §2

GPR182 = biological target: T3, GPR182 (Homo sapiens, UniProt O15218); experiment: β-arrestin-2 recruitment to GPR182 (NanoBiT screen); type: cell-based; settings: peptides 3 μM
T3 construct: expressed in transfected cells; host or cells: HEK293T
Method: as §1

HEK-ACKR3 cells = experiment: PAMP-12-FAM uptake by HEK-ACKR3 cells, imaging flow cytometry; type: cell-based, human; settings: chemokine 200 nM, 15 min preincubation; PAMP-12-FAM 3 μM, 45 min at 37 °C
Method: HEK293T or HEK-ACKR3 cells were harvested in Opti-MEM and distributed into 96-well plates (3 × 10^5 cells/well). […] At 24 h post-transfection, the cells were harvested and treated as described above. Dead cells were excluded using Zombie NIR viability dye (BioLegend). Images of 1 × 10^4 in-focus, living single cells were acquired with an ImageStream Mark II imaging flow cytometer (Amnis) equipped with an extended depth of field (EDF) module and using 60× magnification. Samples were analyzed using Ideas6.2 software. The number of spots per cell was determined using a mask-based software wizard.

[1] = tested on: all known classical and atypical human chemokine receptors; experiment: β-arrestin-2 recruitment screen toward all chemokine receptors (NanoBiT); type: cell-based; settings: peptides 3 μM, fold change over vehicle
Method: as §1

[2] = pEC50 ± S.E.M, β-arrestin-2 recruitment, ACKR3 (Supplementary Table 2), HEK cells, NanoBiT, three independent experiments
[3] = EC50, β-arrestin-2 recruitment toward MrgX2, HEK cells, NanoBiT, normalised to full agonist, three independent experiments
[4] = pEC50 ± S.E.M, β-arrestin recruitment, MrgX2 (Supplementary Table 1), HEK cells, NanoBiT, NA: no activity detected in the concentration range tested

T3 sequence (O15218 whole entry, species assumed): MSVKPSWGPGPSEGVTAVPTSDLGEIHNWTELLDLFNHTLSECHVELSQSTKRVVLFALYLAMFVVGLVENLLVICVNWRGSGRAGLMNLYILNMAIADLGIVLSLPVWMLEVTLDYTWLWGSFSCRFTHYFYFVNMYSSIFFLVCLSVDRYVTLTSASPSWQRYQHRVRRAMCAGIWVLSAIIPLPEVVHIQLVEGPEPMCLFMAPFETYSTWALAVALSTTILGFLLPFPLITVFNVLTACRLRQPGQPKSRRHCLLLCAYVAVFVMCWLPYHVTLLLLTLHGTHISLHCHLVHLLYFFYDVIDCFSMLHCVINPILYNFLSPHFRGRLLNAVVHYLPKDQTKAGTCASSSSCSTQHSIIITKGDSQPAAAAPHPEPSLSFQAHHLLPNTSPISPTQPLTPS
T1 sequence (P25106 whole entry): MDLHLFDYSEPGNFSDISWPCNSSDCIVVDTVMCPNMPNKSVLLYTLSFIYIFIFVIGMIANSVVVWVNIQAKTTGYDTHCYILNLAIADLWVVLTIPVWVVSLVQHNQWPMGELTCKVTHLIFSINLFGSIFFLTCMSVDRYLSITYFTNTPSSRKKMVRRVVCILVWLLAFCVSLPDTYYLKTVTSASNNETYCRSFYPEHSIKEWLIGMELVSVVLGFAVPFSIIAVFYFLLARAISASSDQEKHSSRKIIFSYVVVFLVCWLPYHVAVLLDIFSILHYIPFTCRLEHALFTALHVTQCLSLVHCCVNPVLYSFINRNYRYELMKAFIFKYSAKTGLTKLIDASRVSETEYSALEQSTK

Row | Compound | EC50 (ACKR3; [2]) [nM] | EC50 (MrgX2) [nM] | also measured
1 | CC(C)C[C@H](NC(=O)[C@H](C)NC(=O)[C@H](Cc1c[nH]c2ccccc12)NC(=O)[C@H](CCCCN)NC(=O)[C@H](CC(N)=O)NC(=O)[C@H](Cc1c[nH]c2ccccc12)NC(=O)[C@H](CCCCN)NC(=O)[C@H](CCCCN)NC(=O)[C@H](CCCNC(=N)N)NC(=O)[C@@H](N)Cc1ccccc1)C(=O)N[C@@H](CO)C(=O)N[C@@H](CCCNC(=N)N)C(=O)O | 1580 | 2290 | –
2 | CC[C@H](C)[C@H](NC(=O)[C@H](CCC(N)=O)NC(=O)[C@H](Cc1c[nH]cn1)NC(=O)[C@H](C)NC(=O)[C@H](CC(C)C)NC(=O)[C@H](CCCCN)NC(=O)[C@H](CCC(N)=O)NC(=O)[C@@H](NC(=O)[C@@H](NC(=O)[C@@H]1CSSC[C@H](NC(=O)CNC(=O)[C@H](Cc2ccccc2)NC(=O)[C@H](CO)NC(=O)[C@H](CCCNC(=N)N)NC(=O)[C@H](CC(C)C)NC(=O)CNC(=O)[C@H](CCC(N)=O)NC(=O)[C@H](Cc2ccccc2)NC(=O)[C@H](CC(N)=O)NC(=O)[C@H](CC(N)=O)NC(=O)[C@H](CCSC)NC(=O)[C@H](CO)NC(=O)[C@H](CCC(N)=O)NC(=O)[C@H](CCCNC(=N)N)NC(=O)[C@@H](N)Cc2ccc(O)cc2)C(=O)N[C@@H](CCCNC(=N)N)C(=O)N[C@@H](Cc2ccccc2)C(=O)NCC(=O)N[C@@H]([C@@H](C)O)C(=O)N1)[C@@H](C)O)C(C)C)C(=O)N[C@@H](Cc1ccc(O)cc1)C(=O)N[C@@H](CCC(N)=O)C(=O)N[C@@H](Cc1ccccc1)C(=O)N[C@H](C(=O)N[C@@H](CC(=O)O)C(=O)N[C@@H](CCCCN)C(=O)N[C@@H](CC(=O)O)C(=O)N[C@@H](CCCCN)C(=O)N[C@@H](CC(=O)O)C(=O)N[C@@H](CC(N)=O)C(=O)N[C@H](C(=O)N[C@@H](C)C(=O)N1CCC[C@H]1C(=O)N[C@@H](CCCNC(=N)N)C(=O)N[C@@H](CO)C(=O)N[C@@H](CCCCN)C(=O)N[C@H](C(=O)N[C@@H](CO)C(=O)N1CCC[C@H]1C(=O)N[C@@H](CCC(N)=O)C(=O)NCC(=O)N[C@@H](Cc1ccc(O)cc1)C(N)=O)[C@@H](C)CC)C(C)C)[C@@H](C)O [ADM] | – | – | activity toward GPR182, in words (GPR182): no activity
3 | CC(C)C[C@H](NC(=O)[C@H](C)NC(=O)[C@H](Cc1c[nH]c2ccccc12)NC(=O)[C@H](CCCCN)NC(=O)[C@H](CC(N)=O)NC(=O)[C@H](Cc1c[nH]c2ccccc12)NC(=O)[C@H](CCCCN)NC(=O)[C@H](CCCCN)NC(=O)[C@H](CCCNC(=N)N)NC(=O)[C@@H](N)Cc1ccccc1)C(=O)N[C@@H](CO)C(=O)N[C@@H](CCCNC(=N)N)C(N)=O [PAMP-12] | – | – | activity toward GPR182, in words (GPR182): no activity; EC50 (MrgX2; [3]): 785 nM; EC50 (MrgX2; [4]): 776 nM
4 | CSCC[C@H](NC(=O)[C@H](CC(C)C)NC(=O)CNC(=O)[C@H](Cc1ccccc1)NC(=O)[C@H](Cc1ccccc1)NC(=O)[C@H](CCC(N)=O)NC(=O)[C@H](CCC(N)=O)NC(=O)[C@@H]1CCCN1C(=O)[C@H](CCCCN)NC(=O)[C@@H]1CCCN1C(=O)[C@@H](N)CCCNC(=N)N)C(N)=O [substance P, reference compound] | – | – | activity toward ACKR3 (β-arrestin-2 recruitment), in words (ACKR3; HEK cells, NanoBiT): no activity
5 | AFRKKWNKWALSR-NH2 | 2000 | 891 | –
6 | AMY: CGRP family peptide (KCNTATCATQRLANFLVHSSNNFGAILSSTNVGSNTY; not fully specified (C-terminus, bridges); cysteine pairing not given here; UniProt P10997 34-70, looked up) [reference compound] | – | – | activity toward ACKR3 (β-arrestin-2 recruitment), in words (ACKR3; HEK cells, NanoBiT): No activity
7 | ARKKWNKWALSR-NH2 | 46800 | 933 | –
8 | ARLDVASEFRKKWNKWA [PAMP1-17] | 331000 | 95500 | –
9 | ARLDVASEFRKKWNKWALSR-NH2 [PAMP] | – | – | activity toward GPR182, in words (GPR182): no activity; EC50 (ACKR3): > 10000 nM; EC50 (MrgX2; [3]): 6200 nM; EC50 (MrgX2; [4]): 6170 nM
10 | CT: CGRP family peptide [reference compound] | – | – | activity toward ACKR3 (β-arrestin-2 recruitment), in words (ACKR3; HEK cells, NanoBiT): No activity
11 | CXCL12: chemokine, full agonist of ACKR3; purchased from PeproTech | – | – | effect of chemokine preincubation on PAMP-12-FAM accumulation in HEK-ACKR3 cells, in words (HEK-ACKR3 cells): reduced PAMP-12 accumulation to background levels
12 | DVASEFRKKWNKWALSR-NH2 [PAMP 4-20] | 178000 | 3310 | –
13 | FAKKWNKWALSR-NH2 | 9330 | 1000 | –
14 | FKKKWNKWALSR-NH2 | 3310 | 1450 | –
15 | FRAKWNKWALSR-NH2 | 1350 | 977 | –
16 | FRKAWNKWALSR-NH2 | 269 | 661 | –
17 | FRKKANKWALSR-NH2 | 7590 | 2000 | –
18 | FRKKFNKWALSR-NH2 | 4270 | 589 | –
19 | FRKKWAKWALSR-NH2 | 832 | 479 | –
20 | FRKKWDKWALSR-NH2 | 589 | 479 | –
21 | FRKKWNAWALSR-NH2 | 1260 | 550 | –
22 | FRKKWNKAALSR-NH2 | 2240 | 2510 | –

Row | Compound | EC50 (ACKR3; [2]) [nM] | EC50 (MrgX2) [nM] | also measured
23 | FRKKWNKFALSR-NH2 | 1150 | 1050 | –
24 | FRKKWNKWAASR-NH2 | 2880 | 1480 | –
25 | FRKKWNKWAFSR-NH2 | 955 | 741 | –
26 | FRKKWNKWALAR-NH2 | 912 | 339 | –
27 | FRKKWNKWALFR-NH2 | 575 | 209 | –
28 | FRKKWNKWALS-NH2 [FRKKWNKWALS -] | 2570 | 1550 | –
29 | FRKKWNKWALSA-NH2 | 11200 | 5750 | –
30 | FRKKWNKWALSK-NH2 | 1020 | 794 | –
31 | FRKKWNKWALTR-NH2 | 575 | 269 | –
32 | FRKKWNKWFLSR-NH2 | 513 | 417 | –
33 | FRKKWNKWGLSR-NH2 | 1580 | 1100 | –
34 | FRKKWNKYALSR-NH2 | 776 | 741 | –
35 | FRKKWNRWALSR-NH2 | 331 | 1950 | –
36 | FRKKWQKWALSR-NH2 | 776 | 4680 | –
37 | FRKKYNKWALSR-NH2 | 3160 | 2450 | –
38 | FRKRWNKWALSR-NH2 | 759 | 1910 | –
39 | FRRKWNKWALSR-NH2 | 468 | 2750 | –
40 | KWNKWALSR-NH2 [PAMP(12–20)] | – | – | agonist activity toward the other 24 chemokine receptors tested, in words [1]: do not activate
41 | RKKWNKWALSR-NH2 [- RKKWNKWALSR] | 28800 | 2090 | –
42 | WNKWALSR-NH2 [PAMP 13-20] | 11700 | – | –
43 | YRKKWNKWALSR-NH2 | 6760 | 912 | –
